In patent US6613791B1, “N-substituted azaheterocyclic carboxylic acids and their use” (Novo Nordisk A/S, priority 1994, dated 2003):

What was measured:
[1] = system: formalin induced pain response; experiment: Formalin induced pain or paw oedema in mice; format: in vivo; conditions: 0.1 mg/kg; NMRI female mice, 20 μl 1% formalin into left hind paw
Experimental: Values for in vivo inhibition of formalin induced pain or oedema for the compounds of the present invention were assessed in mice essentially by the method of Wheeler-Aceto and Cowan (Agents Action 1991, 34, 265-269).
About 20 g NMRI female mice were injected 20 μl 1% formalin into the left hind paw. The animals were then placed on a heated (31° C.) table, and the pain response was scored. After 1 h they were killed and bled. Left and right hind paws were removed and the weight difference between the paws was used as indication of the oedema response of the formalin injected paw.

melting point [°C]	Compound	% Pain inhibition (inhibition of formalin induced pain response) [1] [%]
195 to 197	Cl.O=C(O)C1CCN(CCCN2c3ccccc3CCc3ccccc32)CC1	
185 to 188	Cl.O=C(O)CC1CCN(CCCN2c3ccccc3CCc3ccccc32)CC1	
224 to 226	Cl.O=C(O)C1CCN(CCC=C2c3ccccc3CCc3ccccc32)CC1	
> 250	Cl.NC(=O)[C@@H]1CCCN(CCC=C2c3ccccc3CCc3ccccc32)C1	
196 to 198	Cl.O=C(O)C1CCN(CCCN2c3ccccc3Oc3ccccc32)CC1	
233 to 235	Cl.O=C(O)CC1CCCN(CCCN2c3ccccc3CCc3ccccc32)C1 (stereo not shown)	
237 to 239	Cl.O=C(O)C1CCN(CCCN2c3cc(Cl)ccc3CCc3ccc(Cl)cc32)CC1	
> 250	Cc1ccc2c(c1)C(=CCCN1CCC(C(=O)O)CC1)c1ccccc1CC2.Cl	
145 to 147	Cl.OCC1CCCN(CCCN2c3ccccc3CCc3ccccc32)C1 (stereo not shown)	
169 to 170	CC1C(C(=O)O)CCCN1CCCN1c2ccccc2CCc2ccccc21.Cl (stereo not shown) (hydrate or solvate)	
165 to 166	Cl.O=C(O)C1CCN(CCCN2c3ccc(Br)cc3CCc3cc(Br)ccc32)CC1 (hydrate or solvate)	
151 to 155	O=C([O-])C1CN(CCCN2c3ccccc3CCc3ccccc32)CCN1.[K+] (stereo not shown) (hydrate or solvate)	
122 to 126	Cl.O=C(O)C1CCCCN1CCCN1c2ccccc2CCc2ccccc21 (stereo not shown) (hydrate or solvate) [Example 5, 1-(3-(10,11-Dihydro-5H-dibenz[b,f]azepin-5-yl)-1-propyl)-2-piperidinecarboxylic Acid Hydrochloride]	
196 to 199	Cl.O=C(O)C1CN(CCCN2c3ccccc3CCc3ccccc32)CCO1 (stereo not shown) (hydrate or solvate) [Example 8, 4-(3-(10,11-Dihydro-5H-dibenz[b,f]azepin-5-yl)-1-propyl)-2-morpholinecarboxylic Acid Hydrochloride]	
205 to 208	Cl.O=C(O)C1Cc2ccccc2CN1CCCN1c2ccccc2CCc2ccccc21 (stereo not shown) (hydrate or solvate) [Example 9, 2-(3-(10,11-Dihydro-5H-dibenz[b,f]azepin-5-yl)-1-propyl)-1,2,3,4-tetrahydro-3-isoquinolinecarboxylic Acid Hydrochloride]	
207 to 209	Cc1ccc2c(c1)N(CCCN1CCC(C(=O)O)CC1)c1cc(C)ccc1CC2 (hydrate or solvate) [Example 24, 1-(3-(3,7-Dimethyl-10,11-dihydro-5H-dibenz[b,f]azepin-5-yl)-1-propyl)-4-piperidinecarboxylic Acid]	
198 to 202	CN(C)c1ccc2c(c1)N(CCCN1CCC(C(=O)O)CC1)c1ccccc1CC2 (hydrate or solvate) [Example 25, 1-(3-(3-Dimethylamino-10,11-dihydro-5H-dibenz[b,f]azepin-5-yl)-1-propyl)-4-piperidinecarboxylic Acid]	
	Cl.OC1(c2ccc(Cl)cc2)CCN(CCCN2c3ccccc3CCc3ccccc32)CC1 [Example 2, 4-(4-Chlorophenyl)-1-(3-(10,11-dihydro-5H-dibenz[b,f]azepin-5-yl)-1-propyl)piperidin-4-ol Hydrochloride]	13
	Cl.NC(=O)C1CCCN(CCCN2c3ccccc3CCc3ccccc32)C1 (stereo not shown) [Example 4, 1-(3-(10,11-Dihydro-5H-dibenz[b,f]azepin-5-yl)-1-propyl)-3-piperidinecarboxamide Hydrochloride]	47
	Cl.O=C(O)C1CCCCN1CCCN1c2ccccc2CCc2ccccc21 (stereo not shown) [Example 5, 1-(3-(10,11-Dihydro-5H-dibenz[b,f]azepin-5-yl)-1-propyl)-2-piperidinecarboxylic Acid Hydrochloride]	36
	Cl.O=C(O)C1CN(CCCN2c3ccccc3CCc3ccccc32)CCO1 (stereo not shown) [Example 8, 4-(3-(10,11-Dihydro-5H-dibenz[b,f]azepin-5-yl)-1-propyl)-2-morpholinecarboxylic Acid Hydrochloride]	34
	Cl.O=C(O)C1Cc2ccccc2CN1CCCN1c2ccccc2CCc2ccccc21 (stereo not shown) [Example 9, 2-(3-(10,11-Dihydro-5H-dibenz[b,f]azepin-5-yl)-1-propyl)-1,2,3,4-tetrahydro-3-isoquinolinecarboxylic Acid Hydrochloride]	29
